Reference: patent publication US10624881B2, “Methods for inducing apoptosis in cancer cells” (Health Research, Inc., priority 2015, dated 2020)
Read-outs that look alike come from different tables or passages of the source.

Assays:
NALM6 cells = experiment: Flow cytometry of sub-G1 population in NALM6 cells (PI staining); assay type: cell-based
From the text: Sub-G1 fractions of each treatment were shown.
Proliferation and apoptosis assays.

RL4RH cells = experiment: RRCL proliferation assay, drug-resistant lymphoma RL4RH cells; assay type: cell-based; settings: for IC50: 3-day treatment
mouse bone marrow cells = settings: for IC50: read-out: IC50, CFU-GM, mouse bone marrow cells, 7-day continuous treatment
Experimental: For the bone marrow toxicity assay, the following method was used. 400 μL of murine marrow mononuclear cells (2.0×10^5/mL) in IMDM containing 20% FBS, 10 units/mL recombinant murine GM-CSF, 10% of a 10× drug solution or control solution (DMSO), and 0.3% agarose were pipetted into microwells containing a 0.4-mL underlayer of IMDM and 0.3% agarose. The cultures were allowed to gel at 4° C. for 15 min and incubated at 37° C. in a fully humidified atmosphere of 5% CO2 in air for 7 days. CFU-GM colonies (aggregates of ≥40 cells) were counted with an inverted microscope using phase contrast. Percent survivals were calculated as 100× (the number of colonies in the drug-treated groups divided by the number of colonies in the vehicle control-treated group). IC50 values were determined.

NALM6-shp53 cells = experiment: Apoptosis markers in NALM6-shp53 cells (Western blot); assay type: cell-based; settings: NALM6-shp53 versus NALM6, 24 h
From the text: Actin was the loading control.

Raji4RH cells = experiment: RRCL proliferation assay, drug-resistant lymphoma Raji4RH cells; assay type: cell-based; settings: for IC50: 3-day treatment
NALM6 = experiment: Cell proliferation assay, NALM6 cells; assay type: cell-based; settings: 72 h, read-out: IC50 of Compounds, NALM6
NALM6-shp53 = experiment: Cell proliferation assay, NALM6-shp53 cells (p53 shRNA knockdown); assay type: cell-based
Experimental: Proliferation and apoptosis assays. Growth inhibition assays and apoptosis assays were carried out as described previously.

[1] = system: p53 pathway in HCT8 cells; settings: Western blot, time- and concentration-dependent
[2] = system: p53 pathway in NALM6 cells
Mdm2 RING domain = target: T1, Mdm2 RING domain (Homo sapiens, UniProt Q00987, DEL223-299); experiment: In vitro autoubiquitination of Mdm2 RING domain (RING-RING homo-dimers); assay type: biochemical; settings: compound 10 μM, Western blot
T1 construct: made in house; host or cells: insect cells (recombinant baculovirus)
Experimental: In vitro ubiquitination assays were performed with Mdm2 (100 nM) and MdmX (200 nM) in the presence of nothing (C), DMSO (10 μM) or indicated compounds (10 μM), followed by WB of Mdm2 with anti-HA antibody. […] In vitro ubiquitination assays were performed with Mdm2-RING domain (100 nM) in the presence of nothing (C), DMSO (10 μM) or indicated compounds (10 μM), followed by WB of Mdm2 with anti-HA. […] FLAG-MdmX and HA-Mdm2-RING domain (HA-Mdm2R) were incubated in vitro in the presence of nothing (positive control), or DMSO (10 μM) or indicated compounds (10 μM), followed by pulldown with anti-FLAG-beads (M2) and WB of MdmX and Mdm2-RING domain with anti-FLAG and anti-HA antibodies respectively. The negative control (Neg) contains all components as in positive control sample except for missing of FLAG-MdmX.
To directly evaluate the ability of these compounds in inhibiting Mdm2-MdmX interaction, we performed in vitro pulldown experiments using recombinant FLAG-MdmX and HA-Mdm2RING proteins. After incubation of the two proteins in test tubes in the presence or absence of test compounds for 30 min at RT, FLAG-MdmX was pulled down with anti-FLAG beads followed by detection of MdmX-bound HA-Mdm2RING domain by Western blotting for HA-tag.
(§1) Materials and Methods. Plasmids, Protein Purification, and Chemical Reagents. FLAG-MdmX and HA-Mdm2 (human) constructs for insect cell expression and protein purification were described previously. HA-ubiquitin construct was generated by inserting HA-tag to the N-terminus of ubiquitin in pET28a vector. The mammalian expression plasmid pcDNA3.1-HdmX was a gift from Dr. Gokul Das (Roswell Park Cancer Institute).

Mdm2-MdmX E3 ligase = target: T2, Mdm2-MdmX E3 ligase (Homo sapiens, UniProt O15151); experiment: In vitro MdmX-stimulated Mdm2 autoubiquitination (Western blot); assay type: biochemical; settings: compound 10 μM
T2 construct: FLAG; made in house; host or cells: insect cells (baculovirus)
T2 sequence (O15151 1-490): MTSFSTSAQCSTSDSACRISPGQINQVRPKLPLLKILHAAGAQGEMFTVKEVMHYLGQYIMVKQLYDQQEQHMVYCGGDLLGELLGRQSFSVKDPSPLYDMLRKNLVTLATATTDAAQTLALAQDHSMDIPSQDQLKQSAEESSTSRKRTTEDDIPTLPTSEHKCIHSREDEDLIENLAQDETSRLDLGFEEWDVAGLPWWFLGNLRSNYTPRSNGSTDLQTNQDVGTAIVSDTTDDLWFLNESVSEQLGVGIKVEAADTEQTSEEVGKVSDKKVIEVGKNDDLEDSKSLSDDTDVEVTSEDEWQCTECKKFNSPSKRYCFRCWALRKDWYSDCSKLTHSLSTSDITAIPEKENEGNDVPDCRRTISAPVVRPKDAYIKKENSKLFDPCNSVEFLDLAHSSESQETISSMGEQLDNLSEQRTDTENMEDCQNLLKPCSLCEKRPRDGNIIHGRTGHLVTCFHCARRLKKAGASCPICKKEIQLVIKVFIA
From the text: as §1
In vitro validation assays by Mdm2 autoubiquitination and p53 ubiquitination by Mdm2-MdmX and NEDD4-1 autoubiquitination. In order to test the compound specificity, we used two sets of ubiquitination reaction. One is MdmX stimulated Mdm2 autoubiquitination, the other is NEDD4-1 autoubiquitination. […] The former reaction includes 100 nM HA-tagged Mdm2 and 200 nM MdmX, and latter reaction includes 200 nM HA-tagged NEDD4-1. After adding compound to final concentration of 10 μM, the reaction was started by incubation at 30° C. in a water bath for one hour. Then the reaction was stopped by adding SDS sample buffer, followed by SDS-PAGE and Western blot analysis for HA or NEDD4-1. In vitro assays for p53 ubiquitination by Mdm2-MdmX were performed as described previously. Briefly, reactions were carried out as described above for Mdm2 autoubiquitination except for addition of 100 nM p53. Compounds or DMSO of final concentrations of 10 μM were added in the reaction before starting the reaction at 30° C. for 1 h followed by WB of p53 with DO-1 antibody.

T1 sequence (Q00987 with tags, fused parts or gaps isoform Q00987-2 DEL28-104): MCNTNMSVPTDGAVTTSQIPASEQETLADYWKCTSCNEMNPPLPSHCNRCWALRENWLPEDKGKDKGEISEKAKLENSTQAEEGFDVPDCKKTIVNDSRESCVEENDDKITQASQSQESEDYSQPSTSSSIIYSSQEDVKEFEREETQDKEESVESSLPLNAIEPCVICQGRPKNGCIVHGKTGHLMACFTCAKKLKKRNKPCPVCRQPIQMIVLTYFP

Structure (SMILES): Cc1ccnc(NC(c2cccc(Cl)c2Cl)c2ccc3cccnc3c2O)c1 (stereo not shown) [MMRi64]
- sub-G1 population (NALM6 cells; 0.2 μM, single treatment, combination experiment): 0.73%
- sub-G1 population (NALM6 cells; 0.4 μM, single treatment, combination experiment): 2.5%
- sub-G1 population (NALM6 cells; 0.5 μM, 48 h): 7.3%
- sub-G1 population (NALM6 cells; 1 μM, 48 h): 20%
- IC50 (RL4RH cells): 1000 nM
- IC50 (mouse bone marrow cells): 1600 nM
- effect of shRNA knockdown of p53 on apoptosis induction (NALM6-shp53 cells): did not affect apoptosis induction
- IC50 (Raji4RH cells): 180 nM
- IC50 (NALM6): 145 nM

Structure (SMILES): COc1cc([C@@H]2c3cc4c(cc3[C@@H](O[C@@H]3O[C@@H]5CO[C@@H](C)O[C@H]5[C@H](O)[C@H]3O)[C@H]3COC(=O)[C@H]23)OCO4)cc(OC)c1O [Etoposide, etoposide]
- IC50 (NALM6-shp53; 72 h, listed as marked (nM), read-out: IC50 of Compounds, NALM6-shp53): 19.9 nM
- Fold change (NALM6-shp53; IC50 NALM6-shp53 versus NALM6, 72 h): 9x
- IC50 (RL4RH cells): 6300 nM
- TW BM/CC, RL4RH (RL4RH cells; therapeutic window, CFU-GM IC50 versus RL4RH IC50): −19x
- fold more toxic to normal mouse bone marrow cells (mouse bone marrow cells): 5 fold
- fold more toxic to normal mouse bone marrow cells relative to RRCLs (mouse bone marrow cells): 5-20 fold
- IC50 (mouse bone marrow cells): 320 nM
- IC50 (Raji4RH cells): 1700 nM
- TW BM/CC, Raji4RH (Raji4RH cells; therapeutic window, CFU-GM IC50 versus Raji4RH IC50): −5x
- IC50 (NALM6; listed as marked (nM)): 2.23 nM

Structure (SMILES): COc1ccc(C2=N[C@@H](c3ccc(Cl)cc3)[C@@H](c3ccc(Cl)cc3)N2C(=O)N2CCNC(=O)C2)c(OC(C)C)c1 [Nutlin3a, reference compound]
- sub-G1 population (NALM6 cells; 0.5 μM, 48 h): 0.4%
- sub-G1 population (NALM6 cells; 1 μM, 48 h): 0.8%
- sub-G1 population (NALM6 cells; 2 μM, 48 h): 3.0%
- sub-G1 population (NALM6 cells; 2 μM, single treatment, combination experiment): 1.3%
- effect on MdmX level in HCT8 cells [1]: not obvious
- IC50 (NALM6): 1270 nM
- PUMA induction in NALM6 cells ([2]; 1 μM, time course): stronger p53 accumulation and PUMA induction than MMRi64
- p21 induction in NALM6 cells ([2]; 1 μM, time course to 24 h): strong induction of growth-arresting effector p21
- effect on Mdm2 expression in NALM6 cells ([2]; Western blot): strong induction of Mdm2 protein
- effect on MdmX levels in NALM6 cells ([2]; Western blot): slightly decreased MdmX levels

Structure (SMILES): Oc1c(C(Nc2ccccn2)c2cccc(Cl)c2Cl)ccc2cccnc12 (stereo not shown) [MMRi62]
- inhibition of autoubiquitination of Mdm2 RING domain (RING-RING homo-dimers) (Mdm2 RING domain): do not inhibit
- inhibition of Mdm2 autoubiquitination stimulated by MdmX (Mdm2-MdmX E3 ligase): inhibit

Structure (SMILES): Oc1c(C(Nc2ccccn2)c2ccccc2Br)cc(Cl)c2cccnc12 (stereo not shown) [MMRi65]
- inhibition of autoubiquitination of Mdm2 RING domain (RING-RING homo-dimers) (Mdm2 RING domain): do not inhibit
- inhibition of Mdm2 autoubiquitination stimulated by MdmX (Mdm2-MdmX E3 ligase): inhibit

Structure (SMILES): Oc1c(C(Nc2ccccn2)c2cccc(Br)c2)cc(Cl)c2cccnc12 (stereo not shown) [MMRi63]
- inhibition of autoubiquitination of Mdm2 RING domain (RING-RING homo-dimers) (Mdm2 RING domain): do not inhibit
- inhibition of Mdm2 autoubiquitination stimulated by MdmX (Mdm2-MdmX E3 ligase): inhibit

Structure (SMILES): Oc1c(C(Nc2ccccn2)c2ccc(Cl)c(Cl)c2)ccc2cccnc12 (stereo not shown) [MMRi61]
- inhibition of autoubiquitination of Mdm2 RING domain (RING-RING homo-dimers) (Mdm2 RING domain): do not inhibit
- inhibition of Mdm2 autoubiquitination stimulated by MdmX (Mdm2-MdmX E3 ligase): inhibit
